Publication PMC9701179, “New tricyclic systems as photosensitizers towards triple negative breast cancer cells” (Archives of Pharmacal Research, 2022)
Entries after “also recorded” stand apart in the source; their conditions may differ. Read-outs that look alike come from different tables or passages of the source.

Experiments:
MDA-MB-231 cells [1] = assay: Intracellular ROS production (CM-H2DCFDA) under UVA; format: cell-based, human; settings: MDA-MB-231, 25 µM, 90 min, UVA 2.0 J/cm^2; antimycin 3 µM positive control
Experimental: The production of ROS was measured in MDA-MB-231 cells (10^4 per well) grown for 24 h in a 96-well plate in RPMI medium without phenol red (Merk, Germany). Cells were then washed with PBS and loaded with 10 μM 5-(and-6)-chloromethyl-2′,7′-dichlorodihydrofluorescein diacetate acetyl ester (CM–H2DCFDA) (Molecular Probes-Invitrogen, Eugene, OR) for 45 min, in the dark. Afterwards, cells were washed with PBS and incubated with tested compounds (25 µM) for 90 min and after that exposed to UVA light (2.0 J/cm^2). Fluorescence increase was estimated utilizing the wavelengths of 485 nm (excitation) and 527 nm (emission) in a VICTOR X3 (PerkinElmer, USA) plate reader. Antimycin (3 μM, Merk), a potent inhibitor of Complex III in the electron transport chain, was used as positive control.
ROS production under light (UVA, 2.0 J/cm^2) was evaluated in MDA-MB-231 cell samples treated with increasing concentrations of tested compounds or antimycin, a potent inhibitor of Complex III of mitochondria electron chain, used as a positive control under the same experimental conditions (Fig. 4).
(§1) Fig. 4 Cellular ROS production (A) and total thiol redox state (B). A Effect of UVA activated tested compounds (25 µM) or antimycin (3 µM) on hydrogen peroxide formation in MDA-MB-231 cancer cells. B Sulfhydryl content in MDA-MB-231 cancer cells incubated for 24 h with UVA activated tested compounds. The sulfhydryl group amount was determined by the DTNB assay. Error bars indicate S.D

MDA-MB-231 cells [2] = assay: Mitochondrial membrane potential (Mito-ID kit); format: cell-based, human; settings: MDA-MB-231, UVA 2.0 J/cm^2; CCCP positive control
Experimental: The ΔΨ was assayed using the Mito-ID® Membrane Potential Kit according to the manufacturer’s instructions (Enzo Life Sciences, Farmingdale, NY, USA) as previously described. Briefly, MDA-MB-231 cells (8 × 10^3 per well) were seeded in 96-well plates; after 24 h, cells were washed with PBS and loaded with Mito-ID Detection Reagent for 30 min at 37 °C in the dark. Afterwards, cells were incubated with increasing concentrations of tested compounds for 90 min and after that exposed to UVA light (2.0 J/cm^2). CCCP (Carbonyl cyanide 3-chlorophenyl-hydrazone) was used as positive control. Fluorescence intensity was estimated using a VICTOR X3 (PerkinElmer, USA) plate reader at 490 (excitation) and 590 nm (emission).
Induction of ROS production can in turn prompt the collapse of mitochondrial membrane potential as well as loss of mitochondrial integrity and functioning. […] MDA-MB-231 TNBC cells were treated with tested compounds upon UVA irradiation and the percentage of cells with hypopolarized mitochondrial membrane potential was determined fluorometrically by means of the Mito-ID® Membrane Potential Kit.
Fig. 5 Effects on mitochondrial membrane potential (A) and cell death induction (B) in human breast MDA-MB-231 cancer cells. A Cells were treated with 7h and 8e and stained with TMRM (10 nM). Fluorescence was estimated at 490 nm (excitation) and 590 nm (emission). Data are the means of five independent experiments. Error bars indicate S.D. * P < 0.05. B Cells were treated with concentrations of 7h and 8e equal to IC50 for 24 h and stained with the fluorescent dyes Hoechst 33342 and PI

MDA-MB-231 cells [3] = assay: MTT cytotoxicity/photocytotoxicity test on human TNBC MDA-MB-231 cells; format: cell-based; settings: Homo sapiens
Experimental: The irradiation device used for the irradiation of cell cultures during the assays was a black box equipped with two Philips UVA lamps with an irradiance of 17 mW cm^−2 and a centered emission peak at 365 nm; UVA irradiance was measured using a Waldmann Variocontrol radiometer, equipped with a UVA sensor. The box was maintained at room temperature inside with a fan and the multiwell plates were placed onto a water-refrigerated metal block.
Human triple negative (TNBC) breast MDA-MB-231 carcinoma cells were obtained from American Type Culture Collection (ATCC, Rockville, MD, USA). Human embryonic kidney HEK293 cells were obtained from the European Collection of Cell Cultures (ECACC, Salisbury, UK). Cell lines were maintained in the logarithmic phase at 37 °C in a 5% CO2 atmosphere using the following culture media containing 10% foetal calf serum (Euroclone, Milan, Italy), antibiotics (50 units/mL penicillin and 50 μg/mL streptomycin) and 2 mM l-glutamine: (i) RPMI-1640 medium (Euroclone, Milan, Italy) for MDA-MB-231 4 cells; (ii) DMEM (Euroclone, Milan, Italy) for HEK293 cells.
Cells (5–8 × 10^3 cells/well, dependent upon the growth characteristics of the cell line) were seeded in 96-well microplates in growth medium (100 μL). After 24 h, the medium was removed and replaced with a fresh one containing the compound to be studied at the appropriate concentration. Triplicate cultures were established for each treatment. For photocytotoxicity studies, after 1 h of incubation the medium was replaced with PBS and cells were treated with 2.0 J cm^−2 of UVA light. After irradiation, PBS was replaced with complete proliferation media. For pre-irradiation studies, instead, compounds in PBS were irradiated with 2.0 J cm^−2 of UVA light and subsequently cells were treated with pre-irradiated solutions. Following 24 h, each well was treated with 10 μL of a 5 mg/mL MTT saline solution, and following 5 h of incubation, 100 μL of a sodium dodecyl sulfate (SDS) solution in HCl 0.01 M were added. After an overnight incubation, cell growth inhibition was detected by measuring the absorbance of each well at 570 nm using a Bio-Rad 680 microplate reader. Mean absorbance for each drug dose was expressed as a percentage of the control untreated well absorbance and plotted against drug concentration. IC50 values, the drug concentrations that reduce the mean absorbance at 570 nm to 50% of those in the untreated control wells, were calculated by the four-parameter logistic (4-PL) model. Evaluation was based on means from at least four independent experiments.
The new synthetized pyrrolo[1,2-h][1,7]naphthyridinones 7 and pyrido[2,3-c]pyrrolo[1,2-a]azepinones 8 were screened for their cytotoxicity (in the dark) and photocitotoxicity (upon UVA light irradiation at 2.0 J/cm^2) profile on human TNBC cells, MDA-MB-231. The cytotoxicity/photocytotoxicity parameters, expressed in terms of IC50 values obtained by MTT test after 24 h of drug-exposure, are listed in Table 2.

MDA-MB-231 cells [4] = assay: Quantification of thiols (DTNB assay); format: cell-based, human; settings: MDA-MB-231, 25 µM; for Intracellular thiols (qualitative): UVA 2.0 J/cm^2
Experimental: The MDA-MB-231 cells (2 × 10^5) were seeded in a six-well plate in growth medium (4 mL). After 24 h, cells were incubated with tested compounds (25 µM) for 90 min, and after that exposed to UVA light (2.0 J/cm^2). Subsequently, after 24 h, the thiol content was measured as previously described (Rigobello et al. [2009]).
as §1

[5] = MDA-MB-231, in the dark, 1 h pre-treatment, recovered for total 24 h, read-out: Dark IC50 (µM) ± S.D
[6] = light or radiation study, MDA-MB-231, 1 h pre-treatment, UVA 2.0 J/cm^2, recovered for total 24 h, read-out: UVA (2.0 J/cm^2) IC50 (µM) ± S.D

Compound | Cellular ROS production (hydrogen peroxide formation) (MDA-MB-231 cells [1]) | Cells with depolarized mitochondria (mitochondrial membrane potential) (MDA-MB-231 cells [2]) | IC50 (MDA-MB-231 cells [3]; [5]) [µM] | IC50 (MDA-MB-231 cells [3]; [6]) [µM] | Intracellular thiols (qualitative) (MDA-MB-231 cells [4]) | Decrease of intracellular sulfhydryl content (MDA-MB-231 cells [4]; UVA 2.0 J/cm^2, after 24 h of exposure)
CCOC(=O)c1ccc2n1CCc1cc(S(=O)(=O)c3ccccc3)c(OC)nc1-2 [Compound 7h, Ethyl 3-(benzenesulfonyl)-2-methoxy-5,6-dihydropyrrolo[1,2-h][1,7]naphthyridine-8-carboxylate] | highest increase in cellular ROS production; also recorded: hydrogen peroxide content comparable to that induced by antimycin | significant increase of cells with depolarized mitochondria | > 50 | 4.4 ± 0.5 | significantly decreased | about 45%
CCOC(=O)c1ccc2n1CCCc1cc(S(=O)(=O)c3ccccc3)c(OC)nc1-2 [Compound 8e, Ethyl 3-(benzenesulfonyl)-2-methoxy-6,7-dihydro-5H-pyrido[2,3-c]pyrrolo[1,2-a]azepine-9-carboxylate] | highest increase in cellular ROS production | significant increase of cells with depolarized mitochondria | > 50 | 15.3 ± 1.7 | significantly decreased | 
